From patent publication US8044211B2 (Chroma Therapeutics Ltd., priority 2006, dated 2011)

molecular target: T1, p38 MAP Kinase a (Homo sapiens, UniProt Q16539); experiment: p38 MAP Kinase activity, radiometric filter-binding assay (Upstate); assay type: biochemical; conditions: IC50 range; ATP at or close to Km; read-out: Inhibitor activity versus p38 MAPKa
T1 construct: purchased Upstate (Dundee UK)
Protocol: The ability of compounds to inhibit p38 MAP a Kinase activity was measured in an assay performed by Upstate (Dundee UK). In a final reaction volume of 25 μL, p38 MAP Kinase a (5-10 mU) is incubated with 25 mM Tris pH 7.5, 0.002 mMEGTA, 0.33 mg/mL myelin basic protein, 10 mM MgAcetate and [g-33P-ATP] (specific activity approx. 500 cpm/pmol, concentration as required). The reaction is initiated by the addition of the MgATP mix. After incubation for 40 minutes at room temperature, the reaction is stopped by the addition of 5 μL of a 3% phosphoric acid solution. 10 μL of the reaction is then spotted onto a P30 filtermat and washed three times for 5 minutes in 75 mM phosphoric acid and once in methanol prior to drying and scintillation counting.
Duplicate data points are generated from a ⅓ log dilution series of a stock solution in DMSO. Nine dilutions steps are made from a top concentration of 10 μM, and a ‘no compound’ blank is included. The standard radiometric filter-binding assay is performed at an ATP concentration at, or close to, the Km. Data from scintillation counts are collected and subjected to free-fit analysis by Prism software. From the curve generated, the concentration giving 50% inhibition is determined and reported.

T1 sequence (Q16539 whole entry): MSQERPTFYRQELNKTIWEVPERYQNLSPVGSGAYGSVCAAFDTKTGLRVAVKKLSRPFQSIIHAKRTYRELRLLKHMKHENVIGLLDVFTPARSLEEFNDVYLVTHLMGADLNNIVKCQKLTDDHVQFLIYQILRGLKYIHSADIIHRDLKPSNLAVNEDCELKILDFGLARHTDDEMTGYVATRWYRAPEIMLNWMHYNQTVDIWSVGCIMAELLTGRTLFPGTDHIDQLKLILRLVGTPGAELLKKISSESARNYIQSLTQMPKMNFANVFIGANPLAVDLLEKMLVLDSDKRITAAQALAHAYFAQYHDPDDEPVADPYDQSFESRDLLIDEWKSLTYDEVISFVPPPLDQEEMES

Compound | IC50 [nM]
Nc1c(C(=O)c2ccc(F)cc2F)ccc(=O)n1-c1ccc(CN[C@H](C(=O)O)c2ccccc2)cc1 [Example 72, (S)-{4-[6-Amino-5-(2,4-difluorobenzoyl)-2-oxo-2H-pyridin-1-yl]benzylamino}phenylacetic acid] | < 100
Nc1c(C(=O)c2ccc(F)cc2F)ccc(=O)n1-c1ccc(CN[C@@H](Cc2ccccc2)C(=O)O)cc1 [Example 73, (S)-2-{4-[6-Amino-5-(2,4-difluorobenzoyl)-2-oxo-2H-pyridin-1-yl]benzylamino}-3-phenylpropionic acid] | < 100
CC(C)C[C@H](NCc1ccc(-n2c(N)c(C(=O)c3ccc(F)cc3F)ccc2=O)cc1)C(=O)O [Example 74, (S)-2-{4-[6-Amino-5-(2,4-difluorobenzoyl)-2-oxo-2H-pyridin-1-yl]benzylamino}-4-methylpentanoic acid] | < 100
Nc1c(C(=O)c2ccc(F)cc2)ccc(=O)n1-c1ccc(CN[C@H](C(=O)O)c2ccccc2)cc1 [Example 75, (S)-{4-[6-Amino-5-(4-fluorobenzoyl)-2-oxo-2H-pyridin-1-yl]benzylamino}phenylacetic acid] | 100 to 1000
Cc1cc(C(=O)c2ccc(=O)n(-c3ccc(CN[C@H](C(=O)O)c4ccccc4)cc3)c2N)ccc1F [Example 76, (S)-{4-[6-Amino-5-(3-methyl-4-fluorobenzoyl)-2-oxo-2H-pyridin-1-yl]benzylamino}phenylacetic acid] | 100 to 1000
Nc1c(C(=O)c2ccc(F)cc2)ccc(=O)n1-c1ccc(CN[C@@H](Cc2ccccc2)C(=O)O)cc1 [Example 78, (S)-2-{4-[6-Amino-5-(4-fluorobenzoyl)-2-oxo-2H-pyridin-1-yl]benzylamino}-3-phenylpropionic acid] | 100 to 1000
CC(C)C[C@H](NCc1ccc(-n2c(N)c(C(=O)c3ccc(F)cc3)ccc2=O)cc1)C(=O)O [Example 79, (S)-2-{4-[6-Amino-5-(4-fluorobenzoyl)-2-oxo-2H-pyridin-1-yl]benzylamino}-4-methylpentanoic acid] | 100 to 1000
Cc1cc(C(=O)c2ccc(=O)n(-c3ccc(CN[C@@H](Cc4ccccc4)C(=O)O)cc3)c2N)ccc1F [Example 80, (S)-2-{4-[6-Amino-5-(3-methyl-4-fluorobenzoyl)-2-oxo-2H-pyridin-1-yl]benzylamino}-3-phenylpropionic acid] | < 100
Cc1cc(C(=O)c2ccc(=O)n(-c3ccc(CN[C@@H](CC(C)C)C(=O)O)cc3)c2N)ccc1F [Example 81, (S)-2-{4-[6-Amino-5-(3-Methyl-4-fluorobenzoyl)-2-oxo-2H-pyridin-1-yl]benzylamino}-4-methylpentanoic acid] | 100 to 1000
Nc1c(C(=O)c2ccc(F)cc2)ccc(=O)n1-c1ccc(OCCCN[C@@H](Cc2ccccc2)C(=O)O)cc1 [Example 82] | < 100
Cc1cc(C(=O)c2ccc(=O)n(-c3ccc(OCCCN[C@@H](Cc4ccccc4)C(=O)O)cc3)c2N)ccc1F [Example 83, (S)-2-(3-{4-[6-Amino-5-(3-methyl-4-fluorobenzoyl)-2-oxo-2H-pyridin-1-yl]phenoxy}propylamino)-3-phenyl propionic acid] | < 100
Nc1c(C(=O)c2ccc(F)cc2F)ccc(=O)n1-c1ccc(OCCCN[C@H](C(=O)O)c2ccccc2)cc1 [Example 84, (S)-(3-{4-[6-Amino-5-(2,4-difluorobenzoyl)-2-oxo-2H-pyridin-1-yl]-phenoxy}propylamino)phenyl acetic acid] | < 100
CC(C)C[C@H](NCCCOc1ccc(-n2c(N)c(C(=O)c3ccc(F)cc3)ccc2=O)cc1)C(=O)O [Example 85, (S)-2-(3-{4-[6-Amino-5-(4-fluorobenzoyl)-2-oxo-2H-pyridin-1-yl]phenoxy}propylamino)-4-methylpentanoic acid] | < 100
Nc1c(C(=O)c2ccc(F)cc2F)ccc(=O)n1-c1ccc(OCCCN[C@@H](Cc2ccccc2)C(=O)O)cc1 [Example 86, (S)-2-(3-{4-[6-Amino-5-(2,4-difluorobenzoyl)-2-oxo-2H-pyridin-1-yl]phenoxy}propylamino)-3-phenyl propionic acid] | > 1000
Cc1cc(C(=O)c2ccc(=O)n(-c3ccc(OCCCN[C@H](C(=O)O)c4ccccc4)cc3)c2N)ccc1F [Example 87] | 100 to 1000
Cc1cc(C(=O)c2ccc(=O)n(-c3ccc(OCCCN[C@@H](CC(C)C)C(=O)O)cc3)c2N)ccc1F [Example 88, (S)-2-(3-{4-[6-Amino-5-(4-fluoro-3-methylbenzoyl)-2-oxo-2H-pyridin-1-yl]phenoxy}propylamino)-4-methylpentanoic acid] | < 100
Nc1c(C(=O)c2ccc(F)cc2)ccc(=O)n1-c1c(F)cc(OCCCN[C@H](C(=O)O)c2ccccc2)cc1F [Example 89] | < 100

Compound | IC50 [nM]
Nc1c(C(=O)c2ccc(F)cc2)ccc(=O)n1-c1c(F)cc(OCCCN[C@@H](Cc2ccccc2)C(=O)O)cc1F [Example 90] | < 100
CC(C)C[C@H](NCCCOc1cc(F)c(-n2c(N)c(C(=O)c3ccc(F)cc3)ccc2=O)c(F)c1)C(=O)O [Example 91] | < 100
Nc1c(C(=O)c2ccc(F)cc2)ccc(=O)n1-c1c(F)cc(CN[C@@H](Cc2ccccc2)C(=O)O)cc1F [Example 92] | < 100
Cc1cc(C(=O)c2ccc(=O)n(-c3c(F)cc(OCCCN[C@@H](Cc4ccccc4)C(=O)O)cc3F)c2N)ccc1F [Example 93, (S)-2-(3-{4-[6-Amino-5-(4-fluoro-3-methylbenzoyl)-2-oxo-2H-pyridin-1-yl]-3,5-difluorophenoxy}propylamino)-3-phenylpropionic acid] | < 100
Nc1c(C(=O)c2ccc(F)cc2)ccc(=O)n1-c1ccc(OCCCN[C@H](C(=O)O)c2ccccc2)cc1 [Example 94, (S)-(3-{4-[6-Amino-5-(4-fluorobenzoyl)-2-oxo-2H-pyridin-1-yl]-Phenoxy}propylamino)phenylacetic acid] | < 100
Nc1c(C(=O)c2ccc(F)cc2F)ccc(=O)n1-c1c(F)cc(OCCCN[C@H](C(=O)O)c2ccccc2)cc1F [Example 95, (S)-(3-{4-[6-Amino-5-(2,4-difluorobenzoyl)-2-oxo-2H-pyridin-1-yl]-3,5-difluorophenoxy}propylamino)phenyl acetic acid] | < 100
CC(C)C[C@H](NCCCOc1ccc(-n2c(N)c(C(=O)c3ccc(F)cc3F)ccc2=O)cc1)C(=O)O [Example 96, (S)-2-(3-{4-[6-Amino-5-(2,4-difluorobenzoyl)-2-oxo-2H-pyridin-1-yl]phenoxy}propylamino)-4-methyl pentanoic acid] | < 100
CC(C)C[C@H](NCCCOc1cc(F)c(-n2c(N)c(C(=O)c3ccc(F)cc3F)ccc2=O)c(F)c1)C(=O)O [Example 97, (S)-2-(3-{4-[6-Amino-5-(2,4-difluorobenzoyl)-2-oxo-2H-pyridin-1-yl]-3,5-difluorophenoxy}propylamino)-4-methyl pentanoic acid] | < 100
Cc1cc(C(=O)c2ccc(=O)n(-c3c(F)cc(OCCCN[C@@H](CC(C)C)C(=O)O)cc3F)c2N)ccc1F [Example 98, (S)-2-(3-{4-[6-Amino-5-(4-fluoro-3-methylbenzoyl)-2-oxo-2H-pyridin-1-yl]-3,5-difluorophenoxy}propylamino)-4-methylpentanoic acid] | < 100
Cc1cc(C(=O)c2ccc(=O)n(-c3c(F)cc(OCCCN[C@H](C(=O)O)c4ccccc4)cc3F)c2N)ccc1F [Example 99, (S)-(3-{4-[6-Amino-5-(4-fluoro-3-methylbenzoyl)-2-oxo-2H-pyridin-1-yl]-3,5-difluorophenoxy}propylamino)phenylacetic acid] | < 100
Nc1c(C(=O)c2ccc(F)cc2F)ccc(=O)n1-c1c(F)cc(OCCCN[C@@H](Cc2ccccc2)C(=O)O)cc1F [Example 100, (S)-2-(3-{4-[6-Amino-5-(2,4-difluorobenzoyl)-2-oxo-2H-pyridin-1-yl]-3,5-difluorophenoxy}-propylamino)-3-phenyl propionic acid] | < 100
CC(C)C[C@H](NCc1cc(F)c(-n2c(N)c(C(=O)c3ccc(F)cc3F)ccc2=O)c(F)c1)C(=O)O [Example 101] | < 100
Nc1c(C(=O)c2ccc(F)cc2)ccc(=O)n1-c1c(F)cc(OC2CCC(N[C@@H](Cc3ccccc3)C(=O)O)CC2)cc1F (stereo partly drawn) [Example 102] | < 100
Nc1c(C(=O)c2ccc(F)cc2)ccc(=O)n1-c1c(F)cc(OC2CCC(N[C@H](C(=O)O)c3ccccc3)CC2)cc1F (stereo partly drawn) [Example 103, (2S)-[(4-{4-[6-amino-5-(4-fluorobenzoyl)-2-oxopyridin-1(2H)-yl]-3,5-difluorophenoxy}cyclohexyl)amino](phenyl)acetic acid] | < 100
CC(C)C[C@H](NC1CCC(Oc2cc(F)c(-n3c(N)c(C(=O)c4ccc(F)cc4)ccc3=O)c(F)c2)CC1)C(=O)O (stereo partly drawn) [Example 104, N-(4-{4-[6-amino-5-(4-fluorobenzoyl)-2-oxopyridin-1(2H)-yl]-3,5-difluorophenoxy}cyclohexyl)-L-leucine] | < 100
Nc1c(C(=O)c2ccc(F)cc2)ccc(=O)n1C1CCC(N[C@@H](Cc2ccccc2)C(=O)O)CC1 (stereo partly drawn) [Example 105, (S)-2-{4-[6-Amino-5-(4-fluorobenzoyl)-2-oxo-2H-pyridin-1-yl]cyclohexylamino}-3-phenylpropionic acid] | 100 to 1000
